Measured values published in patent publication US20260265273A1, “SOLID FORM OF FUSED RING COMPOUND, AND PREPARATION METHOD THEREFOR AND USE THEREOF” (APPLIED PHARMACEUTICAL SCIENCE, INC., priority 2022, published 2026).

What was measured:
[1] = Crystal form change on drying or standing at room conditions; type: physicochemical
Experimental: 20 mg of the amorphous form Z prepared according to the method in Example 1 was weighed into a 3-mL vial. The solid was dissolved in 1.0-1.5 mL of solvent NMP (N-methylpyrrolidone), and the resulting mixture was filtered through a filter membrane to obtain a clear solution. About 4 mL of anti-solvent ACN was added to a 20-mL vial. The uncovered 3-mL vial containing the filtrate was placed into the 20-mL vial, and then the 20-mL vial was sealed and allowed to stand at room temperature. The solid was precipitated and collected to obtain the crystal form I. The X-ray powder diffraction pattern of this crystal form is shown in FIG. 9.
After drying in the air, the crystal form P was transformed to the anhydrous crystal form C. Thus, the crystal form P was determined to be a hydrate.

[2] = Hygroscopicity test (DVS); type: physicochemical
Experimental: Dynamic vapor sorption (DVS) curves were acquired on a DVS Intrinsic in SMS (Surface Measurement Systems). The relative humidity at 25° C. was corrected with the deliquescence points of LiCl, Mg(NO3)2, and KCl.

[3] = Solid-state stability test (XRPD, HPLC purity); type: physicochemical
[4] = Solubility Test II (saturated solubility by HPLC); type: physicochemical; details: 37° C., 24 h
Experimental: Chromatographic column: Waters XTERRA RP18, 4.6 mm×150 mm, 3.5 μm or an equivalent chromatographic column. […] The gradient elution conditions are shown in Table 3-2. pH 4.5 acetate buffer: 0.59806 g of sodium acetate trihydrate was added to a 200-mL measuring flask and dissolved in an appropriate amount of water; 1.6 mL of glacial acetic acid was added; and the mixture was diluted to volume to obtain the pH 4.5 acetate buffer. pH 6.8 phosphate buffer: 1.38501 g of potassium dihydrogen phosphate and 0.18086 g of sodium hydroxide were added to the same 200-mL measuring flask; and the mixture was dissolved in water and diluted to volume to obtain the pH 6.8 phosphate buffer. 10.0 mL of each medium was precisely measured, and the media were placed into different 25-mL measuring flasks; an appropriate amount of each test crystal form was added; and the flasks were sealed and oscillated in an oscillator at 37° C. for 24 h to obtain supersaturated solutions. pH 6.8 phosphate buffer sample solution: the supersaturated solution prepared using the pH 6.8 phosphate buffer medium was filtered to obtain the pH 6.8 phosphate buffer sample solution. Water sample solution: the supersaturated solution prepared using the water medium was filtered to obtain the water sample solution. pH 4.5 acetate buffer sample solution: the supersaturated solution prepared using the pH 4.5 acetate buffer medium was filtered, and 1.0 mL of the filtrate was precisely measured and placed into a 10-mL measuring flask; the filtrate was diluted to volume with the pH 4.5 acetate buffer medium, and 1.0 mL of the solution was then precisely measured and placed into the 10-mL measuring flask; and the solution was diluted to volume with methanol to obtain the pH 4.5 acetate buffer sample solution. (ii) Preparation of crystal form A sample solution: pH 6.8 phosphate buffer sample solution: the supersaturated solution prepared using the pH 6.8 phosphate buffer medium was filtered to obtain the pH 6.8 phosphate buffer sample solution. Water sample solution: the supersaturated solution prepared using the water medium was filtered to obtain the water sample solution. pH 4.5 acetate buffer sample solution: the supersaturated solution prepared using the pH 4.5 acetate buffer medium was filtered, and 1.0 mL of the filtrate was precisely measured and placed into a 10-mL measuring flask; the filtrate was diluted to volume with the pH 4.5 acetate buffer medium, and 1.0 mL of the solution was then precisely measured and placed into a 25-mL measuring flask; and the solution was diluted to volume with methanol to obtain the pH 4.5 acetate buffer sample solution. Each medium sample solution was taken, 10 μL of each test sample solution was precisely measured and injected into a liquid chromatograph according to the chromatography conditions described above, and the chromatogram was recorded. The saturated solution degree of each medium was calculated according to the formula below. In the formula: WR=sample weight of control solution, mg; PR=purity factor of control; • AS=peak area of main peak in test solution: DS=dilution factor of test solution; • AR=peak area of main peak in control solution; DR=dilution factor of control solution;

[5] = Pharmacokinetic experiment in SD rats; type: in vivo; details: oral intragastric 10 mg/kg, 1 mg/mL in 5% DMSO in normal saline, compound I in plasma, 0.25-24 h
Experimental: Six SPF-grade SD rats were prepared and weighed before administration. The dose of administration was calculated based on the weight. […] These administration solutions were orally and intragastrically administered at 10 mg/kg. The rats were weighed before administration, and the dose of administration was calculated based on the weight. 3 rats were used for each crystal form. The administration solutions were orally and intragastrically administered, followed by collection of samples via the jugular vein or other suitable means at the following time points: 0.25 […], and 24 h. About 0.20 mL of each sample was collected, and the plasma was separated out by centrifugation within 2 h. The compound I was detected, and plasma drug concentration-time curves were plotted. The pharmacokinetic parameters were calculated by utilizing WinNonlin according to the plasma concentration data at different time points.

[6] = 1H-NMR analysis of salt crystal forms; type: physicochemical; details: DMSO-d6
Experimental: 1 g of the amorphous form Z prepared according to the method in Example 1 was weighed into a vial, and 14 mL of trichloromethane was added; the mixture was stirred at 35° C. for complete dissolution to obtain a solution 1; 102.64 mg of maleic acid was completely dissolved in 2 mL of ethanol to obtain a solution 2; 551 μL of the solution 2 was added to 0.7 mL of the solution 1 with stirring at room temperature, and no solid was precipitated; the mixture was stirred for 5 h and then placed at 4-8° C. overnight, and no solid was precipitated; 0.8 mL of methyl tert-butyl ether was added to obtain a turbid solution, and the turbid solution was stirred to obtain an oil; 0.4 mL of methyl tert-butyl ether was supplemented; and the mixture was successively stirred overnight, centrifuged, and dried in vacuum at 25° C. to obtain the crystal form T. The X-ray powder diffraction pattern of this crystal form is shown in FIG. 24A. […]

[7] = 25° C./60% RH/uncovered, 2 weeks
[8] = 25° C./60% RH/uncovered, 4 weeks
[9] = 25° C./60% RH/uncovered, 6 weeks
[10] = 40° C./75% RH/uncovered, 2 weeks
[11] = 40° C./75% RH/uncovered, 4 weeks
[12] = 40° C./75% RH/uncovered, 6 weeks
[13] = DVS, isothermal adsorption curve

CCOc1cc(-c2ccc(N3CC4CC(C3)N4Cc3ccc(OC)nc3)nc2)c2c3cn[nH]c3nn2c1 [crystal form Q]
crystal form after standing ([1]; placed at room temperature and room humidity): transferred to the hydrate crystal form M

CCOc1cc(-c2ccc(N3CC4CC(C3)N4Cc3ccc(OC)nc3)nc2)c2c3cn[nH]c3nn2c1 (single isomer, unassigned) [Crystal form B]
hygroscopicity evaluation ([2]; DVS at 25° C., 0% RH-95% RH, according to Chinese Pharmacopoeia 2015 Edition): slightly hygroscopic
hygroscopic weight gain ([2]; DVS, 25° C./80% RH, listed as crystal form B): about 1.0%
crystal form after the DVS test (XRPD) ([2]; after DVS test): not changed
Purity (area %) [3, 7]: 99.96 area %
Relative to initial purity (%) [3, 7]: 100.01%
Purity (area %) [3, 8]: 99.96 area %
Relative to initial purity (%) [3, 8]: 100.01%
Purity (area %) [3, 9]: 99.96 area %
Relative to initial purity (%) [3, 9]: 100.01%
Purity (area %) [3, 10]: 99.96 area %
Relative to initial purity (%) [3, 10]: 100.01%
Crystal form change ([3]; 40° C./75% RH/uncovered, 2 weeks, XRPD): No change
Purity (area %) [3, 11]: 99.96 area %
Relative to initial purity (%) [3, 11]: 100.01%
Purity (area %) [3, 12]: 99.96 area %
Relative to initial purity (%) [3, 12]: 100.01%
Purity (area %) ([3]; 60° C./sealed, 24 h): 99.97 area %
Relative to initial purity (%) ([3]; 60° C./sealed, 24 h): 100.01%
HPLC purity under the test conditions ([3]; all stability conditions (60° C. sealed 24 h; 25° C./60% RH and 40° C./75% RH uncovered 2, 4, 6 weeks)): not significantly reduced
crystal form under the test conditions ([3]; all stability conditions, XRPD): not changed
Saturated solubility ([4]; Water): 0.34 µg/mL
Saturated solubility ([4]; pH 4.5 acetate buffer, listed as crystal form B): 3107.54 µg/mL
Saturated solubility ([4]; pH 6.8 phosphate buffer): 0.02 µg/mL
AUC(0-t) [5]: 10424 ng·h/mL

CCOc1cc(-c2ccc(N3CC4CC(C3)N4Cc3ccc(OC)nc3)nc2)c2c3cn[nH]c3nn2c1 [crystal form T]
stability in the 1H-NMR analysis [6]: decomposition occurred

CCOc1cc(-c2ccc(N3CC4CC(C3)N4Cc3ccc(OC)nc3)nc2)c2c3cn[nH]c3nn2c1 [crystal form P]
crystal form of the wet sample after standing ([1]; placed in the air for about 10 min): transformation to the crystal form C

CCOc1cc(-c2ccc(N3CC4CC(C3)N4Cc3ccc(OC)nc3)nc2)c2c3cn[nH]c3nn2c1 [crystal form S]
RH at which the form started to dehydrate and underwent polymorphic transition to anhydrous crystal form R [2, 13]: 40 % RH

CCOc1cc(-c2ccc(N3CC4CC(C3)N4Cc3ccc(OC)nc3)nc2)c2c3cn[nH]c3nn2c1 [crystal form R]
RH at which the form started to significantly absorb water and underwent polymorphic transition to hydrate crystal form S [2, 13]: 50 % RH

CCOc1cc(-c2ccc(N3CC4CC(C3)N4Cc3ccc(OC)nc3)nc2)c2c3cn[nH]c3nn2c1 [crystal form I]
crystal form after drying ([1]; drying at room temperature): transformed to the crystal form A
